Test results taken from publication PMC9821237, “Spectroscopic Characterization and Biological Activity of Hesperetin Schiff Bases and Their Cu(II) Complexes” (International Journal of Molecular Sciences, 2023).
Like-named read-outs stand apart in the source and are kept apart here. Marks after values point to notes of the source that are not given here.

How the values were obtained:
HeLa cells [1] = test: Comet assay with endonuclease III, oxidative DNA damage; assay type: cell-based, human; conditions: 50 µM, net damage recognised by Endo III (oxidative DNA damage)
Protocol: Oxidative DNA damage was evaluated with the DNA repair enzyme–endonuclease III (Endo III, New England Biolabs Inc., Germany) in model HeLa cells. The procedure was performed according to [67]. To estimate the ability of the enzyme to recognize oxidized DNA bases, the cells were incubated either with tested compounds (at concentration of 50 µM), or hydrogen peroxide (50 µM), lysed and post-treated with Endo III. After lysis slides were washed three times in an enzyme buffer (composed of 40 mM HEPES-KOH, 0.1 KCl, 0.5 mM EDTA, 0.2 mg/mL bovine serum albumin, pH 8.0) and drained, and the agarose was covered with 25 µL of either enzyme buffer or enzyme at 1 µg/mL in buffer, sealed with a cover glass and incubated for 30 min at 37°C. Further steps were described above. To determine the net value of DNA damage recognized by the enzyme, the DNA damage observed in the absence of the enzyme was subtracted from that measured in the presence of it.

Caco-2 cells [2] = test: Alkaline comet assay, basal endogenous DNA damage; conditions: Caco-2, 50 µM, 1 h, mean ± S.E.M.
HeLa cells [3] = test: Alkaline comet assay, basal endogenous DNA damage; conditions: 1 h, mean ± S.E.M.
LLC-PK1 cells = test: Alkaline comet assay, basal endogenous DNA damage; conditions: LLC-PK1, 50 µM, 1 h, mean ± S.E.M.
HeLa cells [4] = test: Neutral comet assay, DNA double-strand breaks (DSBs); assay type: cell-based, human; conditions: 50 µM
Protocol: The ability of tested compounds (at concentration of 50 µM) to induce DNA double-strand breaks (DSBs) in model HeLa cells was evaluated by the neutral comet assay according to Błasiak et al. (2012). In this version of the comet assay electrophoresis ran in a buffer consisting of 100 mM Tris and 300 mM sodium acetate at pH 9.0 (with glacial acetic acid). Electrophoresis was conducted for 60 min, after a 20 min equilibrium period, at an electric field strength of 0.41 V/cm (50 mA) at 4 °C. The slides were then proceeded as described in the “Single-cell gel electrophoresis assay” section.

Caco-2 cells [5] = conditions: human, 1 h, 50 µM

| Structure (SMILES) | Mean DNA (%) in Comet Tail (±S.E.M.) of HeLa Cells, Endo III (HeLa cells [1]) | DNA damage, percentage of DNA in the comet tail (Caco-2 cells [2]) | DNA damage, percentage of DNA in the comet tail (HeLa cells [3]; 1 µM) | DNA damage, percentage of DNA in the comet tail (LLC-PK1 cells) | Mean DNA (%) in Comet Tail (±S.E.M.) of HeLa Cells, DSBs (HeLa cells [4]) | DNA damage, percentage of DNA in the comet tail (Caco-2 cells [5]) | DNA damage, percentage of DNA in the comet tail (HeLa cells [3]; 50 µM) |
| --- | --- | --- | --- | --- | --- | --- | --- |
| COc1ccc(C2CC(=NNC(=O)c3ccccc3)c3c(O)cc(O)cc3O2)cc1O (stereo not drawn) [HHSB, N-[2,3-dihydro-5,7-dihydroxy-2-(3-hydroxy-4-methoxyphenyl)chromen-4-ylidene]benzhydrazide] | 7.5 ± 3.9 ^a % | 34.0% ± 4.6% | 28.8% ± 4.1% | 26.3% ± 4.8% | – | – | – |
| COc1ccc(C2C/C(=N\NC(=O)c3ccncc3)c3c([O][Cu][O]C(C)=O)cc(O)cc3O2)cc1O (stereo not drawn) [CuHIN, (E)-acetoxy((7-hydroxy-2-(3-hydroxy-4-methoxyphenyl)-4-(2-isonicotinoylhydrazono)chroman-5-yl)oxy)copper] | 12.2 ± 4.2 ^a % | – | – | – | 7.7 ± 3.6 ^a % | – | – |
| N.N.[Cl][Pt][Cl] [cisplatin, reference compound] | 26.5 ± 3.9% | – | – | 73.1% ± 3.3% | 30.2 ± 3.4% | – | – |
| COc1ccc(C2CC(=NNC(N)=S)c3c(O)cc(O)cc3O2)cc1O (stereo not drawn) [HTSC, N-[2,3-dihydro-5,7-dihydroxy-2-(3-hydroxy-4-methoxyphenyl)chromen-4-ylidene]thiosemicarbazide] | 10.2 ± 2.0 ^a % | – | – | – | 13.5 ± 0.7 ^a,c % | 32.8% ± 4.4% | – |
| OO [hydrogen peroxide, reference compound] | 26.2% ± 4.6% | 42.0% ± 3.6% | – | 54.1% ± 0.2% | – | – | 50.3% ± 0.6% |
| COc1ccc(C2C/C(=N\NC(=O)c3ccccc3)c3c([O][Cu][O]C(C)=O)cc(O)cc3O2)cc1O (stereo not drawn) [CuHHSB, (E)-acetoxy((4-(2-benzoylhydrazono)-7-hydroxy-2-(3-hydroxy-4-methoxyphenyl)chroman-5-yl)oxy)copper] | 8.3 ± 2.7 ^a % | – | – | – | 14.4 ± 0.7 ^a,b % | – | – |
| COc1ccc(C2CC(=NNC(=O)c3ccncc3)c3c(O)cc(O)cc3O2)cc1O (stereo not drawn) [HIN, N-[2,3-dihydro-5,7-dihydroxy-2-(3-hydroxy-4-methoxyphenyl)chromen-4-ylidene]isonicotinohydrazide] | 5.3 ± 3.5 ^a % | 23.1% ± 3.4% | 28.9% ± 3.5% | – | 19.5 ± 0.7 ^a % | – | – |
| COc1ccc(C2C/C(=N\NC(N)=S)c3c([O][Cu][O]C(C)=O)cc(O)cc3O2)cc1O (stereo not drawn) [CuHTSC, (E)-acetoxy((4-(2-carbamothioylhydrazono)-7-hydroxy-2-(3-hydroxy-4-methoxyphenyl)chroman-5-yl)oxy)copper] | 11.6 ± 1.9 ^a % | – | – | – | 6.4 ± 2.3 ^a,c % | – | – |
